SMILES strings stand for the structures.

The text below walks through data of patent US6303617A, “Serotonin-like 9-substituted hypoxanthine and methods of use” (Neotherapeutics, Inc., priority 1999, dated 2001).

The subject of assay [1] is obese mice. Briefly: Control of obesity in naturally obese mice, 14 days oral. In kind it is in vivo, mouse. Particulars: naturally obese mice (>45 g), daily oral gavage, three doses, FIG. 4. Here is the method:
The activity of N-(2-(5-hydroxyindol-3-yl)ethyl)-3-(6-oxohydropurin-9-yl)propanamide (AIT-202) in controlling obesity in mice was tested. Mice from the existing animal colony of NeoTherapeutics (Irvine, Calif.) which were naturally obese (greater than 45 grams in weight) were treated with N-(2-(5-hydroxyindol-3-yl)ethyl)-3-(6-oxohydropurin-9-yl)propanamide daily orally by gavage for 14 days. The mice were dosed with one of three doses of N-(2-(5-hydroxyindol-3-yl)ethyl)-3-(6-oxohydropurin-9-yl)propanamide or vehicle (0.5% methylcellulose). Their weight and food consumption were monitored daily.

The test system of assay [2] is total serum cholesterol. Briefly: Total serum cholesterol in Swiss Webster mice fed a high cholesterol or normal diet. In kind it is in vivo. Conditions: dosed on days 6 and 7 of diet, serum on day 8; FIG. 5. Here is the method:
(§1) On days 6 and 7 the mice were given the compound N-(2-(5-hydroxyindol-3-yl)ethyl)-3-(6-oxohydropurin-9-yl)propanamide (AIT-202), a positive control (bezafibrate), or a vehicle. The animals were fasted overnight and on day 8 trunk blood was collected. Total cholesterol and HDL cholesterol were measured in serum.

In assay [3] the test system is HDL cholesterol. Briefly: HDL cholesterol in serum of Swiss Webster mice fed a high cholesterol or normal diet. In kind it is in vivo. Particulars: dosed on days 6 and 7 of diet, serum on day 8; FIG. 5. Here is the method:
as §1

Assay [4] deals with monoamine oxidase A/B. The assay is described as follows: Inhibition of monoamine oxidase A/B catalytic activity (mouse brain mitochondria, tyramine substrate). In kind it is biochemical. Here is the method:
Experiments were carried out to determine whether the serotonin analogue N-(2-(5-hydroxyindol-3-yl)ethyl)-3-(6-oxohydropurin-9-yl)propanamide (AIT-202) inhibited monoamine oxidases A and B. These experiments were performed as follows:
Mice (3-5 mice) were sacrificed by cervical dislocation. The brains were isolated and placed immediately in 10 ml cold isolation medium (IM) (500 μM EDTA, 5 mM HEPES, 0.25 M sucrose, and 10 mg/L bovine serum albumin (BSA)). The brains were minced and rinsed twice with 10 mL IM. The brains were then homogenized (5-6 strokes) in 10 mL IM. A volume (20 mL) of IM was then added and the homogenized preparation was centrifuged 8-10 minutes at 600×g at 4° C. The supernatant was transferred to a new tube. […]
For the enzyme assays, 1.0 mL to 1.5 mL 50 mM sodium phosphate, pH 7.4 containing 5 μM scopoletin and 2 U/mL horseradish peroxidase) were aliquoted in the wells of a Falcon 24-well plate (reaction mixture or RM). […] The preincubation was carried out in the Cytofluor® 4000 (PerSeptive Biosystems) and the baseline fluorescence at λex =360 nm and λem =460 nm was recorded. After 6 min, the reading was interrupted and 150-166 μM tyramine (monoamine oxidase A and monoamine oxidase B substrate) or the corresponding amount of water were added according to the plate layout. The reading was continued for approximately 30 minutes at 3-minute intervals. […]

In assay [5] the test system is total serum cholesterol. The assay is described as follows: Lowering of total serum cholesterol in mice. In kind it is in vivo, mouse. Conditions: 300 mg/kg oral, 24 hours before determination; 5 mice; vs control group; decrease of 15% or more considered significant. Here is the method:
The activity of N-(2-(5-hydroxyindol-3-yl)ethyl)-3-(6-oxohydropurin-9-yl)propanamide (AIT-202) in lowering total serum cholesterol was tested in mice. Mice (5 mice) were administered N-(2-(5-hydroxyindol-3-yl)ethyl)-3-(6-oxohydropurin-9-yl)propanamide orally at a dosage of 300 mg/kg body weight for 24 hours before cholesterol determination. Total serum cholesterol was determined by standard methods. […] A decrease of 15% or more is considered significant in this test.

The IC50 is the concentration that gives 50% inhibition. On to `O=C(CCn1cnc2c(=O)[nH]cnc21)NCCc1c[nH]c2ccc(O)cc12` [AIT-202, N-(2-(5-hydroxyindol-3-yl)ethyl)-3-(6-oxohydropurin-9-yl)propanamide], for which, in assay [1], the “benefit to treatment in obese mice” value was “There appears to be benefit to treatment”. Besides, the “effect on total serum cholesterol” value in assay [2] is reported as “lowers total serum cholesterol”. For the same compound, in assay [3], the “effect on HDL cholesterol” value is “raises HDL cholesterol”. Further, in assay [4] (2-150 μM compound, tyramine substrate, FIGS. 2 and 3), the “effect on the catalytic activity of monoamine oxidase A and B” value is listed as “significant effect”. Further, the IC50 in assay [4] (estimated, mouse brain mitochondrial protein 0.22-0.24 mg/mL, 150-166 μM tyramine, pH 7.4, 37° C.) is around 2 µM. The “decrease of total serum cholesterol” value in assay [5] was 18%.
